Tests used:
Stability test = assay type: physicochemical
Method: The stability test of the crystalline form C was conducted under the following conditions:
Storage condition 1: stored under conditions of 40° C./RH75% in a sealed state for 3 and 6 months. […] During the whole test period, no change in total amount of impurities was recognized as compared with that before the beginning of the test.
Storage condition 2: stored under conditions of 40° C./RH75% in an unsealed state for 1 and 3 months.

Solubility test = assay type: physicochemical; conditions: for Solubility: THF (volume of solvent in which the solid dissolved): 0.50 g solid added to THF at room temperature; for Solubility: THF (volume of solvent in which the solid dissolved) / Solubility: Acetone (volume of solvent in which the solid dissolved) / Solubility: Ethanol (volume of solvent in which the solid dissolved) / Solubility: Ethyl acetate (volume of solvent in which the solid dissolved) / Solubility: Methanol (volume of solvent in which the solid dissolved): shaking 30 seconds every 5 minutes, observed with eyes; for Solubility: Acetone (volume of solvent in which the solid dissolved): 0.50 g solid added to acetone at room temperature; for Solubility: Ethanol (volume of solvent in which the solid dissolved): 0.50 g solid added to ethanol at room temperature; for Solubility: Ethyl acetate (volume of solvent in which the solid dissolved): 0.50 g solid added to ethyl acetate at room temperature; for Solubility: Methanol (volume of solvent in which the solid dissolved): 0.50 g solid added to methanol at room temperature; for Solubility: Result: 0.50 g solid in the listed solvent volumes, room temperature, dissolved = no solid detected by human eyes
Method: The crystalline form C, D, F, H, J and L of azilsartan medoxomil potassium (0.50 g) was added to the solvent at room temperature. […] The solid was deemed as dissolved when no solid was detected in the mixture by human eyes.
The solubility data of crystalline forms C, D, F, H, J and L of azilsartan medoxomil potassium are as shown below.

conversion of the crystalline form into other polymorphs (Stability test; storage condition 1: 40° C./RH75%, sealed state, after six months) | change in total amount of impurities compared with before the beginning of the test (Stability test; storage condition 1: 40° C./RH75%, sealed state, whole test period (3 and 6 months)) | total amount of impurities compared with before the beginning of the test (Stability test; storage condition 2: 40° C./RH75%, unsealed state, 1 and 3 months) | conversion of the crystalline form into other polymorphs (Stability test; storage condition 2: 40° C./RH75%, unsealed state, after three months) | Solubility: THF (volume of solvent in which the solid dissolved) (Solubility test) | Solubility: Acetone (volume of solvent in which the solid dissolved) (Solubility test) | Solubility: Ethanol (volume of solvent in which the solid dissolved) (Solubility test) | Solubility: Ethyl acetate (volume of solvent in which the solid dissolved) (Solubility test) | Solubility: Methanol (volume of solvent in which the solid dissolved) (Solubility test) | Solubility: Result (Solubility test) | SMILES
could not be confirmed | no change | increased | could not be confirmed | 13 mL | 8 mL | 6 mL | 10 mL | 5 mL | dissolved | CCOc1nc2cccc(C(=O)OCc3oc(=O)oc3C)c2n1Cc1ccc(-c2ccccc2-c2noc(=O)[n-]2)cc1.[K+] [Form C, azilsartan medoxomil potassium]
– | – | – | – | 16.5 ml^ | 9 mL | 5 mL | 12 mL | 4 mL | dissolved | CCOc1nc2cccc(C(=O)OCc3oc(=O)oc3C)c2n1Cc1ccc(-c2ccccc2-c2noc(=O)[n-]2)cc1.[K+] [Form D, azilsartan medoxomil potassium]
– | – | – | – | 15 mL | 12 mL | 6 mL | 16 mL | 4.5 ml^ | dissolved | CCOc1nc2cccc(C(=O)OCc3oc(=O)oc3C)c2n1Cc1ccc(-c2ccccc2-c2noc(=O)[n-]2)cc1.[K+] [Form F, azilsartan medoxomil potassium]
– | – | – | – | 14 mL | 10 mL | 8 mL | 13 mL | 6 mL | dissolved | CCOc1nc2cccc(C(=O)OCc3oc(=O)oc3C)c2n1Cc1ccc(-c2ccccc2-c2noc(=O)[n-]2)cc1.[K+] [Form H, azilsartan medoxomil potassium]
– | – | – | – | 12 mL | 8 mL | 5.5 ml^ | 11 mL | 4 mL | dissolved | CCOc1nc2cccc(C(=O)OCc3oc(=O)oc3C)c2n1Cc1ccc(-c2ccccc2-c2noc(=O)[n-]2)cc1.[K+] [Form J, azilsartan medoxomil potassium]
– | – | – | – | 17 mL | 11 mL | 6 mL | 14 mL | 5 mL | dissolved | CCOc1nc2cccc(C(=O)OCc3oc(=O)oc3C)c2n1Cc1ccc(-c2ccccc2-c2noc(=O)[n-]2)cc1.[K+] [Form L, azilsartan medoxomil potassium]
